The values that follow come from US5409946A, “Isoxazole, isothiazole and pyrazole compounds that enhance cognitive function” (Abbott Laboratories, priority 1993, dated 1995).

The test system of one series is 1-4 Hz slow wave EEG. Description: 1-4 Hz slow wave EEG amplitude. The class given is in vivo, male Wistar rats.
A further series deals with spike wave discharges. Description: Attenuation of petit mal absence-like spike wave discharges (EEG). The class given is in vivo, male Wistar rats. To be noted: i.p.; 20 min waking immobility; p<0.05 where significant. On the procedure:
Animals: Male albino rats of the Wistar strain (CAMM Research) were maintained on a 12:12 hour light-dark cycle and individually housed throughout these experiments. They were fed standard rodent diet with food and water provided ad libitum.
EEG Recordings: To record spike wave discharges, rats were surgically implanted with permanently affixed EEG electrodes over the frontal codex using previously described techniques (Radek, Brain Res., 1993, in press). After at least a ten day recovery from this surgery, EEG recordings were made inside darkened sound attenuating chambers. Rats were allowed to move freely within the chambers and computerized activity monitors recorded animal motion during these studies. Only those rats that express spike wave discharges, as identified from preliminary recordings, were used to test the effects of nicotinic agents.
Drug studies: EEG recordings were obtained from each rat for a period of 20 minutes of total waking immobility immediately after administration of drug, or a drug-free control solution. Immobility was characterized as the absence of infrared beam interruptions from the activity monitor system. Spike wave activity was identified as regular 6-10 Hz complexes with amplitudes of 0.4 to 1.0 mV. The total spindling duration for 20 minutes of waking immobility was calculated by determining the length (in seconds) of each spike wave burst, and adding each of these times together to obtain a total spindle time for the recording session. Each rat was administered the control solution and one or two doses of the test compounds and each dosing was given at least 48 hours after the previous treatment.
The compound of Example 2 was dissolved in saline to the desired concentration.

The subject of series [1] is anxiety induced by (-)-nicotine withdrawal. Description: Elevated plus-maze 48 hours after withdrawal of 14-day chronic (-)-nicotine. The class given is in vivo, rats. The text has this:
The mouse elevated plus-maze is a conflict test that probes anxiolytic activity of test compounds (Lister, Psychopharmacology, 1987, 92:180). It is based on the fact that exposure of mice to an elevated open arm leads to an avoidance response considerably stronger than that evoked by exposure to an enclosed arm. Compounds may be tested for their ability to modify the avoidance response of the animal to the open arm maze. […] The effect of such potential anti-anxiety drugs may be tested further in a withdrawal challenge test.
Elevated Plus-Maze: The procedure originally described by Pellow et al., for rats was used, with minor modifications (Pellow et al., J. Neurosci. Meth., 14: 149, 1985). The apparatus consisted of two open arms (50×10 cm) and two enclosed arms (50×10×40 cm) extending from a central platform (10×10 cm). It was mounted on a base raising 50 cm above the floor. Light levels on the open and enclosed arms were similar. The animals were placed in the center of the maze and the time spent in the open arms and the total distance traveled by the rat were recorded automatically by a camera mounted above the apparatus, then analyzed by computer (Videomex™ software, Columbus Instruments, Columbus, Ohio). All animals used were naive to the apparatus. Animals were injected i.p. with saline or the different drug doses, and submitted to the test 30 minutes later. The test lasted 5 minutes, and the apparatus was thoroughly cleaned after removal of the animal.
The pumps were removed on day 14 and the animals were tested in the plus-maze 48 hours later, at the time when a state of withdrawal-induced anxiety was present in the rats. On the test day i.p. doses of either saline or the compound of Example 2 were administered to the animals 30 minutes before the test. Data (Table 13) represent the mean ±SEM time spent in the open arms of the plus-maze of 8-16 rats.

A further series relates to ethanol-induced narcosis. The class given is in vivo, male CD1 mice. The text has this: It is known that administration of ethanol to mice induces a state of narcosis in the animals. […] It is also known that certain compounds can modify the narcotic effect of ethanol in this model.
Animals: Male CD1 mice (Charles-River Co., Portage, Mich.) weighing 25-30 g were used in the experiments. Upon arrival they were caged in groups of 14 and allowed to acclimatize to laboratory conditions for one week before the beginning of the studies. They were fed standard rodent diet with food and water ad libitum.
Duration of sleep time: Mice received intraperitoneal (i.p.) injections of ethanol and either saline or one of the drug treatments. Upon loss of the righting reflex, a timer was started to record the duration of the sleep time until the reflex was recovered. Two types of experiments were conducted to study the effect of drugs before (pre-treatment) or after (post-treatment) the injection of the narcotic dose of ethanol. In the pre-treatment experiments the drugs were injected i.p., 15 minutes before ethanol. In the post-treatment experiments the drugs were administered i.p., 1 minute after the animals lost the righting reflex, which was approximately 5 minutes after administration of ethanol.
Drugs: Ethanol was prepared as a 20% v/v (16% w/v) solution in saline. Based on previous studies, a dose of 87 mmol/kg (4 g/kg) was selected as the narcotic dose. RO 15-4513, the benzodiazepine receptor inverse agonist discussed in the Background section, was purchased from RBI (Natick, Mass.). It was dissolved in saline solution with Tween-80 and ultrasonically homogenized for 3 minutes. […] The compounds of Examples 2 and 4, both novel neuronal nicotinic receptor ligands according to the present invention, were also dissolved in saline to the desired concentrations.

Series [2] has as its system time spent in the open arms (anxiolytic activity). As to the kind of experiment: Mouse elevated plus-maze. The class given is in vivo, CD1 mice. To be noted: i.p., p<0.05; for Elevated Plus-Maze (EPM) result: time in open arms. The source says: The mouse elevated plus-maze is a commonly-used conflict test that probes anxiolytic activity of test compounds (Lister, Psychopharmacology, 1987, 92 180). It is based on the fact that exposure of mice to an elevated open arm leads to an avoidance response considerably stronger than that evoked by exposure to an enclosed arm.
The apparatus required to perform this test is made of plywood and consists of two open arms (17×8 cm) and two enclosed arms (17×8×15 cm) extending from a central platform (8×8 cm). It is mounted on a plywood base rising 39 cm above the floor. Mice are released on the central platform and the time spent in the open and enclosed arms is recorded during a 5 minute test period.
The compound of Example 2 (0.0108-1.08 μmol/kg, i.p.) was administered to CD1 mice (n=12 per group) 15 minutes before the test.

The test system of series [3] is neuronal nicotinic cholinergic channels in PC12 cells. Description: Cholinergic channel activator action in PC12 cells, whole-cell patch-clamp. Particulars: PC12 cells; mean ± S.E.M. Format: cell-based, rat. On the procedure: Electrophysiologic recordings were obtained from differentiated (neurite-bearing) cells after 4-7 days exposure to NGF. […] After 20 minutes, differentiating medium was added (DMEM containing 100 ng/ml nerve growth factor, 5% heat-inactivated fetal calf serum and 2.5% heat-inactivated horse serum) and the cells were refed with this medium every 3 days.
The intracellular (recording pipette) solution consisted of 140 mM KCl, 1.0 mM CaCl2, 2.0 mM MgCl2, 11 mM K-EGTA, and 10 mM K-HEPES buffer (7.3 pH, 315 mOsm). Osmolarities were adjusted using dextrose such that the extracellular solution was 10 mOsm hypertonic compared to the intracellular solution. Voltage-gated inward (sodium) and outward (potassium) currents were monitored throughout the experiment to determine establishment and maintenance of the whole-cell recording configuration.
Background: Patch clamp records ionic current or voltage across a cell membrane.

Another series deals with effects of ethanol. Particulars: cited from earlier work.
Series [4] concerns retention of the avoidance response. As to the kind of experiment: Inhibitory avoidance test. The class given is in vivo. To be noted: i.p. 15 min before training, retention at 24 h, p<0.05. The text has this: The inhibitory (or sometimes called passive) avoidance (IA) test is a well-accepted animal model for learning/memory and is widely used to assess the activity of novel cognition enhancers in enhancing cognitive function (Wanibuchi et al., Eur. J. Pharmacol., 1990, 187:479). According to this test, animals are placed in the illuminated (12×14×11 cm) portion of a two-chambered box, from which they enter through a guillotine door to the larger (24×13.5×12 cm) dark compartment of the box. Entry to the dark compartment is accompanied by a mild (0.35 mA), brief (2 seconds) footshock. Initial latencies to cross are recorded, with an imposed 60 second ceiling. Following a 24 hour retention interval, animals are returned to the illuminated chamber, and latency to return to the dark compartment is again recorded, with a ceiling of 180 seconds. No footshock is administered on the test day.
Twelve animals were used in each group.

Series [5] deals with neuronal nicotinic receptors. As to the kind of experiment: Displacement of [3H]-MCC or [3H]-cytisine from neuronal nicotinic receptors, whole rat brain membranes. Format: binding. On the procedure:
Binding of [^3 H]-methylcarbamylcholine ([^3 H]-MCC) or [^3 H]-cytisine ([^3 H]-CYT) to nicotinic receptors was accomplished using crude synaptic membrane preparations from whole rat brain (Snyder and Enna, Brain Research, 1975, 100:81). Washed membranes were stored at -80° C. prior to use. Frozen aliquots were slowly thawed and resuspended in 20 volumes of buffer (containing: 120 mM NaCl, 5 mM KCl, 2 mM MgCl2, 2 mM CaCl2 and 50 mM Tris-Cl, pH 7.4 @4° C). After centrifuging at 20,000 X g for 15 minutes, the pellets were resuspended in 30 volumes of buffer. Homogenate (containing 125-150 μg protein) was added to triplicate tubes containing concentrations of test compound and [^3 H]-MCC (3 nM) in a final volume of 500 μL. Samples were incubated for 60 minutes at 4° C., then rapidly filtered through Whatman GF/B filters presoaked in 0.5% polyethylimine using 3×4 mL of ice-cold buffer. Alternately, homogenate and test compound were incubated for 75 min with [^3 H]-CYT (1.3 nM), then rapidly filtered, as described above. The filters are counted in 4 mL of Ecolume® (ICN). […] IC50 values were determined with the ALLFIT nonlinear least squares curve-fitting program and IC50 values were converted to Ki values using the Cheng and Prusoff correction (Ki =IC50 /(1+[ligand]/Kd of ligand)). Alternately, data were expressed as a percentage of the total specific binding.

The target of the next series is muscarinic receptors. The class given is binding, rat. Particulars: Table 2. On the procedure:
The potencies of ligand binding at central muscarinic binding sites were determined by analysis of competition with the specific muscarinic receptor radioligand [^3 H]-quinuclidinyl benzilate ([^3 H]-QNB). […] Competition between various concentrations of putative nicotinic ligand compounds and 0.2 nM [^3 H]-QNB was performed at 25° C. in an assay volume of 1 mL. After 75 minutes, the bound radioligand was separated by vacuum filtration on Whatman GF/B glass fiber filters. Non-specific binding was defined as radioactivity remaining in the presence of 10 μM atropine. Competition curves were analyzed for Ki values as described above for binding to the nicotinic receptor.

The conditions of series [6]: in vivo; cited from earlier work.

Several values for one entry are separate records, joined by “and”; a condition that tells them apart may be missing. Equal values may be shown once. Entries after “also recorded” stand apart in the source; their conditions may differ. Read-outs that look alike come from different tables or passages of the source.

Take `CN1CCCC1c1cccnc1` (single isomer, unassigned; (-)) [(-)-Nicotine]: in the series with 1-4 Hz slow wave EEG (1.9 μmol/kg i.p.), the “1-4 Hz amplitude” value worked out at 13.2 ± 2.0 μVolts. Besides, the “effect on low frequency (1-4 Hz) EEG slow-wave patterns” value in the series on 1-4 Hz slow wave EEG (i.p.) was “significant (p<0.05, 2-way ANOVA, Fisher post hoc analysis) attenuation”. In the series on spike wave discharges, the “effect on incidence of spike wave discharges” value is recorded as “significantly lowered the incidence of spike wave discharges”. Moreover, in series [1] (48 h after withdrawal of chronic (-)-nicotine), the “effect on time spent in the open arms” value is on record as “significant reduction in the time spent in the open arms”. In addition, the “TIME OPEN ARMS” value in series [1] (14 days chronic 10 mg/kg/day then withdrawal, saline challenge, *p < 0.05 against chronic saline, mean ± SEM) is 35.1 ± 6.0 s. In addition, the “effect of pre-treatment on ethanol sleeping time” value in the series with ethanol-induced narcosis (mouse, in vivo) is recorded as “significantly reduced the sleeping time of ethanol in mice”. In addition, in the series with ethanol-induced narcosis (mouse, in vivo, ip), the Sleeping time is 121 ± 18 % of controls and 149 ± 28 % of controls and 164 ± 32 % of controls and 232 ± 29 % of controls; the “effect of post-treatment on ethanol-induced narcosis” value is given as “significantly prolonged the narcotic effect of ethanol; also recorded: adversely potentiated the narcotic effect”. Also, in series [2], the “Elevated Plus-Maze (EPM) doses with significant effect” value was in the range of 0.62 to 1.9 µmol/kg and the “Elevated Plus-Maze (EPM) result” value is recorded as “significant increase in the time spent by the mice in the open arms”. Besides, the “Elevated Plus-Maze (EPM) result” value in series [2] (listed as (-)-nicotine) is “significant”. Besides, in series [3], the midpoint of the response, the EC50, lay at 52 ± 4 µM. Further, the “effect on motor incoordination due to ethanol” value with effects of ethanol (administered directly into the brain, ethanol i.p.) was “significantly attenuate the motor incoordination due to the effects of ethanol”. For the same molecule, the “Inhibitory Avoidance (IA) result” value in series [4] was “dose-dependent facilitation of retention of the avoidance response”. Further, the “Inhibitory Avoidance (IA) result” value in [4] (listed as (-)-nicotine) is on record as “significant”.

With `COC(=O)C1=CCCN(C)C1` [Arecoline, reference compound], the Ki (in general, a dissociation constant, usually derived from enzyme kinetics or from competition with a known ligand) in [5] (Table 1, read-out: Nicotinic Receptor Ki) came out at 0.059 µM; in [5] (Table 2, read-out: Nicotinic Ki), 0.059 µM; on muscarinic receptors it was 5 µM. Further, in series [6], the pharmacokinetics result is “unfavorable pharmacokinetics”.

For the molecule `CCOC(=O)c1ncn2c1CN(C)C(=O)c1cc(N=[N+]=[N-])ccc1-2` [RO 15-4513], the Sleeping time is on record as 84 ± 14 % of controls in the series on ethanol-induced narcosis (post-treatment, 1 μmol/kg i.p.); 165 ± 22 % of controls in the series with ethanol-induced narcosis (post-treatment, 3 μmol/kg i.p., statistically significant); 118 ± 13 % of controls in the series with ethanol-induced narcosis (post-treatment, 10 μmol/kg i.p.); 73 ± 11 % of controls in the series with ethanol-induced narcosis (post-treatment, 30 μmol/kg i.p.); 101 ± 9 % of controls with ethanol-induced narcosis (pre-treatment, 1 μmol/kg i.p.); 107 ± 19 % of controls in the series with ethanol-induced narcosis (pre-treatment, 3 μmol/kg i.p.). Further, the Sleeping time in the series with ethanol-induced narcosis (pre-treatment, 10 μmol/kg i.p.) is reported as 79 ± 6 % of controls; in the series with ethanol-induced narcosis (pre-treatment, 30 μmol/kg i.p., statistically significant) it was 57 ± 14 % of controls. In addition, in the series with ethanol-induced narcosis (post-treatment, i.p., p<0.05, one-tailed t test), the “effect of post-treatment on ethanol-induced narcosis” value was “significantly prolonged the narcotic effect of ethanol; also recorded: adversely potentiated the narcotic effect”. Moreover, the “effect of pre-treatment on ethanol sleeping time” value with ethanol-induced narcosis (pre-treatment, i.p., p<0.05, one-tailed t test) was “significantly reduced the sleeping time of ethanol in mice”. For the same molecule, the “antagonism of the effects of ethanol” value in the series on effects of ethanol (rats) is “selectively antagonize the effects of ethanol in rats”.
